Data: patent US4999424A, “GAR transformylase inhibitor” (The Pennsylvania State University, priority 1988, dated 1991)
pKd: −log10 of the molar value.

Columns and labels:
[1] = target: GAR TFase (avian) (Gallus gallus, UniProt P21872); test: Avian GAR TFase inhibition; format: biochemical; details: for Mode of inhibition: avian GAR TFase
Protocol: (§1) All assays were carried out by following the increase of 5,8-dideazafolate absorbence at 295 nm in buffered medium at 26° C. To initiate the reaction, enzyme (1 nM final concentration) was added to a mixture of saturating substrates and variable amounts of inhibitor. A characteristic family of curves was obtained, showing slow, tight-binding inhibition. See, Morrison, Trends Biochem. Sc., 7, 102 (1982) and Morrison, et al., Adv. Enzymology, Relat. Areas Mol. Biol., 57, 201-301 (1987).
(§2) The specificity of beta-TGDDF for GAR TFase from species other than E. coli was assayed in a general manner by measuring the activity of GAR TFase at a concentration of 1 nM from avian, HeLa, and L121? sources in the presence of 20 nM beta-TGDDF.
(§3) Table II illustrates the specificity of beta-TGDDF for GAR TFase in comparison with other reduced-folate utilizing enzymes. This test, was conducted using the same [I]/[E]ratios as stated previously.

[2] = target: T1, GAR TFase (L1210) (Mus musculus, UniProt Q64737); test: L1210 GAR TFase inhibition; format: biochemical; details: for Mode of inhibition: L1210 GAR TFase
T1 construct: GAR TFase activity is the C-terminal domain of trifunctional Gart
T1 sequence (Q64737 2-1010): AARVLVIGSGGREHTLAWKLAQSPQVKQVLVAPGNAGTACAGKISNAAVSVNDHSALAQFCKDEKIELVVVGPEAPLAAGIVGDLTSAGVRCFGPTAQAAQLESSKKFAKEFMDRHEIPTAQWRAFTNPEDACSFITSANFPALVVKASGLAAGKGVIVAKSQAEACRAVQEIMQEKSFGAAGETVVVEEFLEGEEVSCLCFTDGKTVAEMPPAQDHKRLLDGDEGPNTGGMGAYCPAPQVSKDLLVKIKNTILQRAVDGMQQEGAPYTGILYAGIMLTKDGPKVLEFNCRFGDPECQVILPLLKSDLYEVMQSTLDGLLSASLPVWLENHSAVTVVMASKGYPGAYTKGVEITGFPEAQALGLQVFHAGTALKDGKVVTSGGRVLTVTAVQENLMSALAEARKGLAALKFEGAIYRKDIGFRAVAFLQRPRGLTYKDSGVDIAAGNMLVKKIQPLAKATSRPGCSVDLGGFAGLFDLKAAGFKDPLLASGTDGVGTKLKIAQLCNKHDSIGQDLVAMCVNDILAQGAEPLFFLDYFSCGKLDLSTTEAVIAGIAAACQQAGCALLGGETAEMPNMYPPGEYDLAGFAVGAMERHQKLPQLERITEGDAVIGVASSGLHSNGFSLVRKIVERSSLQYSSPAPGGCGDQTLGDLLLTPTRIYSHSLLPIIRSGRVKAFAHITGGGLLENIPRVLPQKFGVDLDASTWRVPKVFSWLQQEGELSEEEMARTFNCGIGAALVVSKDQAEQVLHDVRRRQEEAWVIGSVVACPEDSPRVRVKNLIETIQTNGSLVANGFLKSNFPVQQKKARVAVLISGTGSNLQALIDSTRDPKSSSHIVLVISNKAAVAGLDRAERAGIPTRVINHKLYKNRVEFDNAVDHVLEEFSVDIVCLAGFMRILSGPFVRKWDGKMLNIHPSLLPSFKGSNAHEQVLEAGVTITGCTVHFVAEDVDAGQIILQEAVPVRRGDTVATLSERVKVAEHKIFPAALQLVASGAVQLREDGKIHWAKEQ
Protocol: as §1, with “A characteristic family of curves was obtained, showing slow, tight-binding inhibition.” left out
as §2
This test, was conducted using the same [I]/[E]ratios as stated previously.
E. coli GAR TFase was prepared and purified as described below. L1210 and HeLa GAR TFase were purified according to published procedures. AICAR TFase was prepared according to published procedures.

[3] = target: T2, E. coli GAR TFase (Escherichia coli, UniProt P08179); test: Fluorescence titration, dissociation constant for E. coli GAR TFase; format: binding; details: average from three wavelengths (396, 400, 405 nm); standard error about 50 pM; 11 nM inhibitor, excitation 275 nm; read-out: thermodynamic dissociation constant, KD
T2 construct: made in house; host or cells: E. coli TX393 with multicopy plasmid pJS85, or E. coli TX635 with lambda pL plasmid pJS119 or pJS167
T2 sequence (P08179 1-212): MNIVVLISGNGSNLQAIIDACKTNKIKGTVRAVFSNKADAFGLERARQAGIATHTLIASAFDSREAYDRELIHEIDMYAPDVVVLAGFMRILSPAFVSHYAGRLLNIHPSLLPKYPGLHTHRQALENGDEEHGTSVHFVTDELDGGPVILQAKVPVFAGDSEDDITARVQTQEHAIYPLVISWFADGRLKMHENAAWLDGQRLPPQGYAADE
Protocol: The thermodynamic dissociation constant, KD, for the E.β-TGDDF complex was measured by following the enhancement of the inhibitor's 395 nm fluorescence (excitation at 275 nm) upon binding to GAR TFase. A concentrated E. coli GAR TFase solution was added to an 11 nM solution of purified β-TGDDF; for each addition, the fluorescence at three different wavelengths (396, 400, and 405 nm) was measured. Fluorescence titration data was analyzed by the method of Taira and Benkovic, J. Med. Chem., 31, 129-137 (1988).
(§4) In analyzing the biological activity of the compounds of the present invention, GAR TFase from E. coli was used. This enzyme behaves like the mammalian and avian enzyme with respect to substrate specificity, yet is a simple and effective system having only one biological activity. That is, unlike the avian trifunctional GAR TFase, the E. coli species has a sole function. This follows from the genetic evidence of Smith and Daum, J. Biol. Chem., 262, 10565-10569 (1987) as w®11 as the work of Schrimsher et al., Biochemistry, 25, 4366-4371 (1986) who have shown that […] from E. coli is a monofunctional protein, whereas, in chicken it belongs to a trifunctional protein containing, the activates: GAR SYNthase, GAR TFase, and AIR SYNthase.
The E. coli GAR TFase binding constants for the compounds of the present invention and other folate analogs are shown in Table I below: […]

[4] = target: T2, E. coli GAR TFase; test: E. coli GAR TFase inhibition/activity assay (5,8-dideazafolate absorbance at 295 nm); format: biochemical; details: E. coli GAR TFase, 26° C, 1 nM enzyme, saturating substrates
Protocol: as §1, §4
The E. coli GAR TFase binding constants for the compounds of the present invention and other folate analogs are shown in Table I below:
as §3

Sequence of GAR TFase (avian) (P21872 whole entry): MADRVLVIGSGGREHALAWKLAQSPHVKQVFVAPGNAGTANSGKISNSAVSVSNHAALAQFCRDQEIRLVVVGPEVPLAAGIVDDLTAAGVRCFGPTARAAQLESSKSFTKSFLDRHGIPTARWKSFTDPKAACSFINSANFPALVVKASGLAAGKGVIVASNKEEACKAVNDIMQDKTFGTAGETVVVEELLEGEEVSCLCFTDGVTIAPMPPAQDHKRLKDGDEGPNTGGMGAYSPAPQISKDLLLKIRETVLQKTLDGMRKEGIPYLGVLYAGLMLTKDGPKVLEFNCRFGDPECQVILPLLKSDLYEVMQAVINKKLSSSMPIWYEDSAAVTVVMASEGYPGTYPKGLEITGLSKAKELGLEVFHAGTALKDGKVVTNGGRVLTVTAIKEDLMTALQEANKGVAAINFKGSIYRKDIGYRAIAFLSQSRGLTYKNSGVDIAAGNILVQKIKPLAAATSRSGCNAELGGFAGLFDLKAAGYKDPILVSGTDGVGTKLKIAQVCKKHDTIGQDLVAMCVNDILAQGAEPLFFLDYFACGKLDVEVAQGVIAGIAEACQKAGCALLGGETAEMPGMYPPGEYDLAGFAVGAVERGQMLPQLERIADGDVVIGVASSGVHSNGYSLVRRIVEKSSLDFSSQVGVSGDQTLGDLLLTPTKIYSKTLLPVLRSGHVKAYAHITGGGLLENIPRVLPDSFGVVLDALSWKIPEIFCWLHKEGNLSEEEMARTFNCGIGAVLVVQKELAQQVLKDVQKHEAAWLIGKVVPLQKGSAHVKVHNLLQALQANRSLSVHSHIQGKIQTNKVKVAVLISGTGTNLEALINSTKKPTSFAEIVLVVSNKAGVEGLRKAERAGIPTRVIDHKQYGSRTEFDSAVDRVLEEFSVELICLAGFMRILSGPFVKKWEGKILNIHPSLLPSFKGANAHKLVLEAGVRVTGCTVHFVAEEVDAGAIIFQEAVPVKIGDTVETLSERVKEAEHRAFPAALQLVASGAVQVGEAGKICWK

Nc1nc2ccc(CN(C(=O)CSCC(=O)N[C@@H]3O[C@H](COP(=O)(O)O)[C@@H](O)[C@H]3O)c3ccc(C(=O)N[C@@H](CCC(=O)O)C(=O)O)cc3)cc2c(=O)[nH]1 [beta-TGDDF, N^10-[5'-phosphoribosyl-1'-β-amino-carbonylmethyl-1-thioacetyl]-5,8-dideazafolate]
Extent of inhibition ([1]; 20 nM beta-TGDDF, 1 nM enzyme): inhibited by roughly the same magnitude
Mode of inhibition [1]: inhibition of a slow, tight binding nature
Mode of inhibition ([1]; listed as Beta-TGDDF): slow, tight-binding inhibitor
Extent of inhibition ([2]; 20 nM beta-TGDDF, 1 nM enzyme): inhibited by roughly the same magnitude
Mode of inhibition [2]: inhibition of a slow, tight binding nature
Mode of inhibition ([2]; listed as Beta-TGDDF): slow, tight-binding inhibitor
pKd [3]: 9.60
Mode of inhibition [4]: slow, tight-binding inhibitor
